Data published in ChEMBL document CHEMBL1201862, “PubChem BioAssay data set” (2004).
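Values below derive from 48-hour exposures of cells grown in 96-well plates, with endpoints linearly interpolated between the two concentrations bracketing the appropriate inhibition level. GI50: concentration for 50% inhibition of growth.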 The source made the active and inactive calls. Cut-off read from the data, not from the text of the source: active = GI50 up to about 1.1 µM and inactive = higher.

Tests used:
Assay in all cases: NCI anticancer screen, dose series, 48 h
A498 = system: A498
RPMI-8226 = system: RPMI-8226
SF-295 = system: SF-295
OVCAR-3 = system: OVCAR-3
SN12C = system: SN12C
CAKI-1 = system: CAKI-1
NCI-H522 = system: NCI-H522
CCRF-CEM = system: CCRF-CEM
TK-10 = system: TK-10
786-0 = system: 786-0
T47D = system: T47D
SK-MEL-5 = system: SK-MEL-5
NCI-H23 = system: NCI-H23
OVCAR-5 = system: OVCAR-5
PC-3 = system: PC-3
COLO 205 = system: COLO 205
HCT-116 = system: HCT-116
SK-MEL-28 = system: SK-MEL-28
HCC 2998 = system: HCC 2998
OVCAR-4 = system: OVCAR-4
HCT-15 = system: HCT-15
UACC-257 = system: UACC-257
OVCAR-8 = system: OVCAR-8
SK-MEL-2 = system: SK-MEL-2
UO-31 = system: UO-31
MDA-N = system: MDA-N
HOP-92 = system: HOP-92
SNB-19 = system: SNB-19
SF-268 = system: SF-268
NCI-H460 = system: NCI-H460
Hs-578T = system: Hs-578T
U-251 = system: U-251
MCF7 = system: MCF7
BT-549 = system: BT-549
KM12 = system: KM12
ACHN = system: ACHN
MDA-MB-231 = system: MDA-MB-231
Malme-3M = system: Malme-3M
HL-60 = system: HL-60
HT-29 = system: HT-29
UACC-62 = system: UACC-62
MDA-MB-435 = system: MDA-MB-435
NCI/ADR-RES = system: NCI/ADR-RES
LOX IMVI = system: LOX IMVI
IGROV-1 = system: IGROV-1
A549 = system: A549
MOLT-4 = system: MOLT-4
SR = system: SR
NCI-H226 = system: NCI-H226
HOP-62 = system: HOP-62
EKVX = system: EKVX
DU-145 = system: DU-145
SF-539 = system: SF-539
SK-OV-3 = system: SK-OV-3
M14 = system: M14
SW-620 = system: SW-620
RXF 393 = system: RXF 393
K562 = system: K562
SNB-75 = system: SNB-75

For `CC(=O)c1ccc(Nc2nc3ccccc3c3occc23)cc1`, the GI50 (A498) was 2.99 µM (inactive), the GI50 (RPMI-8226) was 5.48 µM (inactive) and the GI50 (SF-295) was 6.31 µM (inactive). For the same compound, the GI50 (OVCAR-3) was 14.9 µM (inactive), the GI50 (SN12C) was 31.9 µM (inactive) and the GI50 (CAKI-1) was 3.26 µM (inactive). The GI50 (NCI-H522) was 2.88 µM (inactive), the GI50 (CCRF-CEM) was 10.5 µM (inactive) and the GI50 (TK-10) was 7.1 µM (inactive). The GI50 (786-0) was 5.6 µM (inactive), the GI50 (T47D) was 5.94 µM (inactive) and the GI50 (SK-MEL-5) was 12.1 µM (inactive). The GI50 (NCI-H23) was 12.2 µM (inactive), the GI50 (OVCAR-5) was 36 µM (inactive) and the GI50 (PC-3) was 22.4 µM (inactive). For the same compound, the GI50 (COLO 205) was 8.99 µM (inactive), the GI50 (HCT-116) was 11.4 µM (inactive) and the GI50 (SK-MEL-28) was 2.34 µM (inactive). The GI50 (HCC 2998) was 6.89 µM (inactive), the GI50 (OVCAR-4) was 1.79 µM (inactive) and the GI50 (HCT-15) was 5.08 µM. For the same compound, the GI50 (UACC-257) was 13.2 µM (inactive), the GI50 (OVCAR-8) was 32.5 µM (inactive) and the GI50 (SK-MEL-2) was 14.6 µM (inactive). The GI50 (UO-31) was 20.4 µM (inactive), the GI50 (MDA-N) was 6.98 µM (inactive) and the GI50 (HOP-92) was 12.8 µM (inactive). The GI50 (SNB-19) was 34.8 µM (inactive), the GI50 (SF-268) was 14.1 µM (inactive) and the GI50 (NCI-H460) was 4.71 µM (inactive). The GI50 (Hs-578T) was 15.3 µM (inactive), the GI50 (U-251) was 18.8 µM (inactive) and the GI50 (MCF7) was 8.22 µM (inactive). For the same compound, the GI50 (BT-549) was 19.8 µM (inactive), the GI50 (KM12) was 7.14 µM (inactive) and the GI50 (ACHN) was 11.1 µM (inactive). For the same compound, the GI50 (MDA-MB-231) was 13.1 µM (inactive), the GI50 (Malme-3M) was 23.3 µM (inactive) and the GI50 (HL-60) was 0.036 µM (active). The GI50 (HT-29) was 4.16 µM (inactive), the GI50 (UACC-62) was 10.7 µM (inactive) and the GI50 (MDA-MB-435) was 3.08 µM (inactive). The GI50 (NCI/ADR-RES) was 11.9 µM (inactive), the GI50 (LOX IMVI) was 9.57 µM (inactive) and the GI50 (IGROV-1) was 9.06 µM (inactive). The GI50 (A549) was 11.1 µM (inactive), the GI50 (MOLT-4) was 1.85 µM (inactive) and the GI50 (SR) was 2.92 µM (inactive). For the same compound, the GI50 (NCI-H226) was 17 µM (inactive), the GI50 (HOP-62) was 12.4 µM (inactive) and the GI50 (EKVX) was 15.9 µM (inactive). For the same compound, the GI50 (DU-145) was 16.6 µM (inactive), the GI50 (SF-539) was 17.1 µM (inactive) and the GI50 (SK-OV-3) was 18.4 µM (inactive). The GI50 (M14) was 14.1 µM (inactive).

In the case of `Nc1ccccc1N/C(=C\C(=O)C(Cl)(Cl)Cl)c1ccccc1`, the GI50 (RPMI-8226) is reported as 23.1 µM (inactive), the GI50 (SW-620) is reported as 28.8 µM (inactive) and the GI50 (SF-295) is reported as 36.6 µM (inactive). The GI50 (OVCAR-3) was 22.5 µM (inactive), the GI50 (SN12C) was 20.1 µM (inactive) and the GI50 (CAKI-1) was 34.5 µM (inactive). The GI50 (NCI-H522) was 15.3 µM (inactive), the GI50 (CCRF-CEM) was 30.2 µM (inactive) and the GI50 (TK-10) was 65 µM (inactive). The GI50 (786-0) was 20.4 µM (inactive), the GI50 (T47D) was 20.7 µM (inactive) and the GI50 (SK-MEL-5) was 15 µM (inactive). The GI50 (NCI-H23) was 30.3 µM (inactive), the GI50 (OVCAR-5) was 15.7 µM (inactive) and the GI50 (PC-3) was 22.5 µM (inactive). For the same compound, the GI50 (COLO 205) was 27.9 µM (inactive), the GI50 (HCT-116) was 16.1 µM (inactive) and the GI50 (SK-MEL-28) was 35.5 µM (inactive). The GI50 (HCC 2998) was 17.3 µM (inactive), the GI50 (OVCAR-4) was 29.2 µM (inactive) and the GI50 (HCT-15) was 25.4 µM. For the same compound, the GI50 (UACC-257) was 23.9 µM (inactive), the GI50 (OVCAR-8) was 30.5 µM (inactive) and the GI50 (SK-MEL-2) was 14.1 µM (inactive). For the same compound, the GI50 (UO-31) was 17.2 µM (inactive), the GI50 (MDA-N) was 18.1 µM (inactive) and the GI50 (HOP-92) was 14.5 µM (inactive). The GI50 (SNB-19) was 36.9 µM (inactive), the GI50 (SF-268) was 24.3 µM (inactive) and the GI50 (NCI-H460) was 25.9 µM (inactive). For the same compound, the GI50 (Hs-578T) was 29.6 µM (inactive), the GI50 (U-251) was 16.8 µM (inactive) and the GI50 (RXF 393) was 19.1 µM (inactive). The GI50 (MCF7) was 23.7 µM (inactive), the GI50 (BT-549) was 25.7 µM (inactive) and the GI50 (KM12) was 33.6 µM (inactive). For the same compound, the GI50 (ACHN) was 24.1 µM (inactive), the GI50 (K562) was 30.2 µM (inactive) and the GI50 (MDA-MB-231) was 15.2 µM (inactive). For the same compound, the GI50 (Malme-3M) was 16.8 µM (inactive), the GI50 (HL-60) was 20.5 µM (inactive) and the GI50 (HT-29) was 27.4 µM (inactive). For the same compound, the GI50 (UACC-62) was 17.5 µM (inactive), the GI50 (MDA-MB-435) was 30.9 µM (inactive) and the GI50 (SNB-75) was 37.8 µM (inactive). The GI50 (NCI/ADR-RES) was 29.2 µM (inactive), the GI50 (LOX IMVI) was 19.5 µM (inactive) and the GI50 (IGROV-1) was 5.6 µM (inactive). The GI50 (A549) was 28.8 µM (inactive), the GI50 (MOLT-4) was 23.3 µM (inactive) and the GI50 (SR) was 28.2 µM (inactive). The GI50 (NCI-H226) was 24.2 µM (inactive), the GI50 (HOP-62) was 23.6 µM (inactive) and the GI50 (EKVX) was 15.2 µM (inactive). For the same compound, the GI50 (DU-145) was 38.8 µM (inactive), the GI50 (SF-539) was 18.8 µM (inactive) and the GI50 (SK-OV-3) was 88.5 µM (inactive). For the same compound, the GI50 (M14) was 20.1 µM (inactive).

With `Cc1cc2c(cc1C)C(=O)C1(C2)Cc2c(ccc(C)c2C)C1=O` (configuration not stated) the GI50 (RPMI-8226) was > 100 µM (inactive), the GI50 (SW-620) was > 100 µM (inactive) and the GI50 (SF-295) was > 100 µM (inactive). The GI50 (OVCAR-3) was > 100 µM (inactive), the GI50 (SN12C) was > 100 µM (inactive) and the GI50 (CAKI-1) was > 100 µM (inactive). The GI50 (NCI-H522) was > 100 µM (inactive), the GI50 (CCRF-CEM) was > 100 µM (inactive) and the GI50 (TK-10) was > 100 µM (inactive). For the same compound, the GI50 (786-0) was 89.1 µM (inactive), the GI50 (T47D) was > 100 µM (inactive) and the GI50 (SK-MEL-5) was > 100 µM (inactive). For the same compound, the GI50 (OVCAR-5) was > 100 µM (inactive), the GI50 (PC-3) was > 100 µM (inactive) and the GI50 (COLO 205) was > 100 µM (inactive). The GI50 (HCT-116) was > 100 µM (inactive), the GI50 (SK-MEL-28) was > 100 µM (inactive) and the GI50 (HCC 2998) was > 100 µM (inactive). For the same compound, the GI50 (OVCAR-4) was 75.5 µM (inactive), the GI50 (HCT-15) was over 100 µM and the GI50 (UACC-257) was > 100 µM (inactive). The GI50 (OVCAR-8) was 72.8 µM (inactive), the GI50 (SK-MEL-2) was > 100 µM (inactive) and the GI50 (UO-31) was > 100 µM (inactive). For the same compound, the GI50 (MDA-N) was > 100 µM (inactive), the GI50 (HOP-92) was 79.4 µM (inactive) and the GI50 (SNB-19) was > 100 µM (inactive). The GI50 (SF-268) was 90.8 µM (inactive), the GI50 (NCI-H460) was > 100 µM (inactive) and the GI50 (Hs-578T) was 42.5 µM (inactive). For the same compound, the GI50 (U-251) was > 100 µM (inactive), the GI50 (RXF 393) was 53.8 µM (inactive) and the GI50 (MCF7) was > 100 µM (inactive). The GI50 (BT-549) was > 100 µM (inactive), the GI50 (KM12) was > 100 µM (inactive) and the GI50 (ACHN) was > 100 µM (inactive). The GI50 (K562) was > 100 µM (inactive), the GI50 (MDA-MB-231) was > 100 µM (inactive) and the GI50 (Malme-3M) was 98.6 µM (inactive). For the same compound, the GI50 (HL-60) was > 100 µM (inactive), the GI50 (UACC-62) was > 100 µM (inactive) and the GI50 (MDA-MB-435) was > 100 µM (inactive). The GI50 (SNB-75) was 64.6 µM (inactive), the GI50 (NCI/ADR-RES) was > 100 µM (inactive) and the GI50 (LOX IMVI) was > 100 µM (inactive). For the same compound, the GI50 (IGROV-1) was > 100 µM (inactive), the GI50 (A549) was 73.6 µM (inactive) and the GI50 (MOLT-4) was > 100 µM (inactive). The GI50 (SR) was > 100 µM (inactive), the GI50 (NCI-H226) was > 100 µM (inactive) and the GI50 (EKVX) was > 100 µM (inactive). The GI50 (DU-145) was > 100 µM (inactive), the GI50 (SF-539) was 36.6 µM (inactive) and the GI50 (M14) was > 100 µM (inactive).
